Reference: patent publication US6492416B1, “4,5-diaryl-3(2H)-furanone derivatives as cyclooxygenase-2 inhibitors” (Pacific Corporation, priority 1999, dated 2002)
Values after ≈ are worked out from the molar mass of the structure shown.

Columns and labels:
[1] = target: T1, COX-1 (Mus musculus, UniProt P22437); assay: Evaluation of COX-1 activity: PGE2 formation in mouse peritoneal macrophages without aspirin and LPS treatment; type: cell-based
T1 sequence (P22437 27-602): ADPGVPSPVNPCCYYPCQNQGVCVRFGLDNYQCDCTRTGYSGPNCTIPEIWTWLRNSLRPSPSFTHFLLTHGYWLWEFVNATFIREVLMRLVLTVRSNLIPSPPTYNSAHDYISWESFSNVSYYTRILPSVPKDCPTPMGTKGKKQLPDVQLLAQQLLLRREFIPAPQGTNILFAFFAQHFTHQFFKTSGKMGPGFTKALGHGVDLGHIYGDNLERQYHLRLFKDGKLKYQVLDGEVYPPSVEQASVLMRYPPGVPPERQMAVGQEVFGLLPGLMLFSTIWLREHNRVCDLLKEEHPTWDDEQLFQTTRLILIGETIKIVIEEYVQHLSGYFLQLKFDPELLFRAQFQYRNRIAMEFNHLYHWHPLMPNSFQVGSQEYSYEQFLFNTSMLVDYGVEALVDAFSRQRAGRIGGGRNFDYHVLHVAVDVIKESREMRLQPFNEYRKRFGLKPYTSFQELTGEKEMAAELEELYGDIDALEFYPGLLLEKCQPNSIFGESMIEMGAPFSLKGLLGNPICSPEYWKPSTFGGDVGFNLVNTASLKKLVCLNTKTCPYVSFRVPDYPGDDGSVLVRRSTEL
Outline: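 Peritoneal macrophages from C57BL/6 mice, without aspirin or LPS treatment, were plated at 1×10^6 cells/ml and fixed 2 h at 37 °C. Cells were preincubated 10 min, then given 10 μM arachidonic acid plus compound for 10 min; PGE2 was measured by RIA or EIA. IC50 came from 4–5 concentrations.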

[2] = target: T2, COX-2 (Mus musculus, UniProt Q05769); assay: Evaluation of COX-2 activity: PGE2 formation in aspirin-treated, LPS-stimulated mouse peritoneal macrophages; type: cell-based
T2 sequence (Q05769 18-604): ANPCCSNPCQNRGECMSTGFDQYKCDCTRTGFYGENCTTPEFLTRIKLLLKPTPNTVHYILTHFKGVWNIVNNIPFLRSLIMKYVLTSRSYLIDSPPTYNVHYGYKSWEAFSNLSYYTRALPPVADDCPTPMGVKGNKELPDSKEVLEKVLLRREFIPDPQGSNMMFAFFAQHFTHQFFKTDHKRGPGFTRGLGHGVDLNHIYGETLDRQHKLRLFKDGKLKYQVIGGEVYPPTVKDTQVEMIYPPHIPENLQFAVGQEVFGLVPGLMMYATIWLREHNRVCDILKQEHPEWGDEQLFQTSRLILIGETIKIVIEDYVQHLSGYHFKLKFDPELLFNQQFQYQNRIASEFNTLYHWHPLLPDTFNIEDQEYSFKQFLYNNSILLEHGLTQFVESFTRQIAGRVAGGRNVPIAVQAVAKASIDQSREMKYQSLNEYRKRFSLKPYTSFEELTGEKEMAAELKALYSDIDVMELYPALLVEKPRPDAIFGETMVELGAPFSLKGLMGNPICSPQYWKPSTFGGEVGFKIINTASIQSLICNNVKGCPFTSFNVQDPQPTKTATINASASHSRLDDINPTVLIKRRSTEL
Outline: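 C57BL/6 peritoneal macrophages treated with 500 μM aspirin to block COX-1, adhered, then stimulated with 10 μg/ml LPS for 16 h at 37 °C to induce COX-2.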

[3] = tested on: male SD rat; assay: Gastric safety studies (Ulcer Index); type: in vivo; settings: daily dose 30 mg/kg body weight oral for 7 days, mean of animals' scores
Method: Gastric safety for compounds of this invention was evaluated as follows [Otterness et al., Laboratory Models for Testing Nonsteroidal Anti-inflammatory Drugs in Nonsteroidal Anti-inflammatory Drugs; ed John Wiley & Sons pp 217-227 (1985); Wiley Interscience; New York]: A designated dose of a compound of this invention suspended in 1% methylcellulose solution was administered daily once for 7 days to a male SD rat by oral gavage. The animal was sacrificed and the inner wall of the stomach was examined visually 4 hours after the last administration (the 7th day administration). The gastric safety was assessed by the “Ulcer Index” as defined as the following scores: […]
Score 1: apparently normal stomach.
Score 2: one or more than one ulcer site of pin-point size only.
Score 3: erosions of 2 or fewer than 2, which may be accompanied by ulcers of pin-point size (an erosion is defied by any ulcerative lesion of any dimension greater than 1 mm).
Score 4: erosions more than 2, which may be accompanied by ulcers of pin-point size.
Score 5: erosions accompanied by hemorrhage.
In evaluating the gastric safety of a compound of this invention, usually 8 animals were used. The ulcer index for a compound was calculated by averaging of the ulcer index of each animal. The following Table 5 illustrates gastric safety of some COX-2 selective inhibitors of this invention.

[4] = Pharmacokinetic studies in rats; type: in vivo, rat
Method: An appropriate amount of a compound suspended 1% aqueous methylcellulose solution was administered to a male SD rat by oral gavage. Blood samples were collected from the retro-orbital sinus at designated times over 24˜48 hours. Plasma was separated from each blood sample by centrifugation and the plasma was stored at 4° C. until analysis. The plasma samples prepared thereby were subjected to analysis by reverse phase HPLC (high performance liquid chromatography) using an appropriate internal standard.

Row | Compound | IC50, μg/ml COX-1 [1] [µg/mL] | IC50, μg/ml COX-2 [2] [µg/mL] | Ulcer Index (1˜5) [3] | amounts detected in the plasma ([4]; metabolite in plasma after oral administration of Example 393 to a SD rat at 10 mg/kg body weight (FIG. 1)) | melting point [°C] | biotransformation of the sulfoxide group into the sulfonyl group ([4]; Example 393 orally administered to a SD rat at 10 mg/kg body weight, plasma, HPLC (FIG. 1))
1 | CC(=O)c1ccc(C2=C(c3ccc(S(C)(=O)=O)cc3)OC(C)(C)C2=O)cc1 [Example 10, 4-(4-Acetylphenyl)-2,2-dimethyl-5-{4-(methylsulfonyl)phenyl}-3(2H)-furanone] | 50 (≈ 130 µM) | 0.3 (≈ 0.78 µM) | 1.2 ± 0.4 |  |  | 
2 | CC1(C)OC(c2ccc(S(C)(=O)=O)cc2)=C(c2cccc(Cl)c2)C1=O [Example 62, 4-(3-Chlorophenyl)-2,2-dimethyl-5-{4-(methylsulfonyl)phenyl}-3(2H)-furanone] | 2 (≈ 5.31 µM) | 0.01 (≈ 0.0265 µM) |  | appreciable amounts | 151 to 152 | 
3 | C[S+]([O-])c1ccc(C2=C(c3cccc(Cl)c3)C(=O)C(C)(C)O2)cc1 (stereo not shown) [Example 393, 4-(3-Chlorophenyl)-2,2-dimethyl-5-{4-(methylsulfinyl)phenyl}-3(2H)-furanone] | 5 (≈ 13.9 µM) | 0.3 (≈ 0.831 µM) |  |  |  | biotransformed into the sulfonyl group
